For assay [1], the system named is dorsal raphe 5-HT neurons. Briefly: Inhibitory effect on the firing activity of dorsal raphe 5-HT neurons (extracellular unitary recordings, anesthetized rats). It counts as in vivo, rat. As to the method:
The experiments were carried out in male Sprague-Dawley rats (Harlan, Gannat, FRANCE) weighing 250 to 300 g at the day of the experiment and which have been kept under standard laboratory conditions (12:12 light-dark cycle with free access to food and water). The animals were anesthetized with chloral hydrate (400 mg/kg, i.p.). Supplemental doses were given to maintain constant anesthesia and to prevent any nociceptive reaction to a tail pinch.
Extracellular unitary recordings of dorsal raphe 5-HT neurons were performed with single-barreled glass micropipettes preloaded with fiberglass filaments in order to facilitate filling. The tip was broken back to 2 to 4 μm and filled with a 2M NaCl solution saturated with Blue Chicago dye. The rats (control or treated) were placed in a stereotaxic frame and a burr hole was drilled on the midline 1 mm anterior to lambda. Dorsal raphe 5-HT neurons were encountered over a distance of 1 mm starting immediately below the ventral border of the Sylvius aqueduct. These neurons were identified using the criteria of Aghajanian (Aghajanian, G. K., Essays Neurochem Neuropharmacol 2000, 3: 1-32): a slow (0.5-2.5 Hz) and regular firing rate and long-duration (0.8-1.2 ms) positive action potentials.
To determine putative synergistic effect of Compound II (2-(6-Fluoro-1H-indol-3-ylsulfanyl)-benzyl]-methyl-amine) on the inhibitory action of 5-HTP (25 mg/kg, i.v.) on the firing activity of dorsal raphe 5-HT neurons, a dose of Compound II corresponding to 20-30% of inhibition, was injected prior to and after the administration of 5-HTP.
Statistical analysis was performed with SigmaStat for Window version 4.0 software (Jandel Corporation). Average was the mean±SEM. Significance was considered for p<0.05.

The next assay concerns the target allosteric site of SERT (Homo sapiens, UniProt P31645). The experiment in a line: Dissociation binding studies (3H-escitalopram), allosteric modulation of the serotonin transporter. As to the method: Whether a compound operates through an allosteric mechanism can be determined by in vitro dissociation experiments. Dissociation binding experiments measure the “off rate” (koff) for a radioligand of the protein. After radioligand and transporter protein are allowed to bind (i.e. form a complex), then ligand is added to block further binding of radioligand to the transporter so that the rate of dissociation can be measured. Binding (as measured by radioactivity of the radioligand:transporter complex) is measured at various times to determine the rate at which the radioligand dissociates from the transporter. Dissociation rate constants can be used to determine the half-life of the bound complex. Half-life determinations can be used to ascertain whether a compound is an allosteric modulator of the human SERT.

In another assay the target is T1, serotonin transporter (Rattus norvegicus, UniProt P31652).
T1 construct: The P2 fraction (synaptosomal fraction) was obtained by centrifugation; from tissue; host or cells: Male Wistar rat brain (minus cerebellum), P2 synaptosomal fraction
T1 sequence (P31652 whole entry): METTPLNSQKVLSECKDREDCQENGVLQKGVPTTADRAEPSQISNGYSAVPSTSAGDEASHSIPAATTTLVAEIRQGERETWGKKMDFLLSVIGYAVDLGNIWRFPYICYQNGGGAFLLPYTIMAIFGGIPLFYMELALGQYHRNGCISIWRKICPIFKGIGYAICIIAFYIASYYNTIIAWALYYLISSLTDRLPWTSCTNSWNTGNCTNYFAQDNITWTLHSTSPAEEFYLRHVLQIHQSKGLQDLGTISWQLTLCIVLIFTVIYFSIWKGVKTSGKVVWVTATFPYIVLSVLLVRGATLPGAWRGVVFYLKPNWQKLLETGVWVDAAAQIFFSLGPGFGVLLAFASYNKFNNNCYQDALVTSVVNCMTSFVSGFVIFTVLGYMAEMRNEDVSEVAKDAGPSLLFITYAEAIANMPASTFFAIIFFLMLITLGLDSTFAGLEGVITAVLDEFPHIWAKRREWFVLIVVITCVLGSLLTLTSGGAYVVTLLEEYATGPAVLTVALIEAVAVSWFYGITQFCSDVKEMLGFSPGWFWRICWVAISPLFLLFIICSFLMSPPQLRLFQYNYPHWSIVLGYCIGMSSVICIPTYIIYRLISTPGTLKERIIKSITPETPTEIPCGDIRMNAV
The experiment in a line: Inhibition of 3H-serotonin uptake in rat brain synaptosomes. The conditions noted are these: 3H-5-HT 10 nM, read-out: uptake inhibitory potency (IC50). It counts as biochemical. As to the method:
In order to test compounds at the primary, high-affinity binding site of the serotonin transporter, i.e. determine if a compound is a serotonin reuptake inhibitor, inhibition of the uptake of serotonin (5-HT) was determined.
By the following method, the inhibition of the uptake of ^3H-serotonin (^3H-5-HT) (10 nM) in rat brain synaptosomes by test compounds was determined in vitro. Exemplary methods, and also results of serotonin uptake for specific SRIs, is described in Hyttel, J., Psychopharmacology 1978, 60:13-18; Hyttel, J., Prog. Neuro-Psychopharmacol. & Biol. Psychait. 1982, 6:277-295; Hyttel, J. & Larsen, Acta Pharmacol. Tox. 1985, 56(suppl. 1):146-153; Sanchez, C. and Hyttel, J. European J. Pharm. […]
To 400 μl of the synaptosomal suspension (5 mg original tissue) on ice, 100 μl test compound in water was added. […] After shaking for 1 h and storage for 2 h in the dark, the content of radioactivity was determined by liquid scintillation counting (cpm). Uptake was obtained by subtracting the non-specific binding and passive transport measured in the presence of 10 μM […]. The measured cpm was plotted against test compound concentration, and the best fitting s-shaped curve was drawn. The uptake inhibitory potencies are expressed as IC50 values in nM (logarithmic means). Two full concentration-response curves were measured using five concentrations of test compound in triplicate.

In assay [2] the target is norepinephrine transporter (NET) (Homo sapiens, UniProt P23975). Briefly: In vitro reuptake inhibitory potency at the norepinephrine transporter. It counts as biochemical.
norepinephrine transporter (NET), sequence (P23975 whole entry, species assumed): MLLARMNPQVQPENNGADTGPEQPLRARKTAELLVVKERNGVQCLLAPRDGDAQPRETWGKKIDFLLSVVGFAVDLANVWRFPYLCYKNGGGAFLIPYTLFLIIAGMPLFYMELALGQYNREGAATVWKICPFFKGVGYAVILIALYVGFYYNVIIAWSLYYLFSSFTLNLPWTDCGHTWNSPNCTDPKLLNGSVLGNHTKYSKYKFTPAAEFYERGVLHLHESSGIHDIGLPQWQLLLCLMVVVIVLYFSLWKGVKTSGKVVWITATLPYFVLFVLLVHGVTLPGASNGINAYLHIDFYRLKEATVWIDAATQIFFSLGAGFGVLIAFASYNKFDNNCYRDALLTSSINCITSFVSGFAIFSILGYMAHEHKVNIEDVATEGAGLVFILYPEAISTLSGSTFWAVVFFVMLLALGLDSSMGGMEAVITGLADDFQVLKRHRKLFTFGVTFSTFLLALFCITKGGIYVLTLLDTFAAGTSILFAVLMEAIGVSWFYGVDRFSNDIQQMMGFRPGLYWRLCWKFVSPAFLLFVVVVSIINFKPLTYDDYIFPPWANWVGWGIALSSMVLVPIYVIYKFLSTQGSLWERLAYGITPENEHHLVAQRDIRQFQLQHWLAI
Another assay concerns ultrasonic vocalization. Conditions: rat, cited from earlier work.
For assay [3], the target named is human serotonin transporter expressed in COS-1 cell membranes (Homo sapiens, UniProt P31645). The conditions noted are these: cited from earlier work.
human serotonin transporter expressed in COS-1 cell membranes, sequence (P31645 whole entry): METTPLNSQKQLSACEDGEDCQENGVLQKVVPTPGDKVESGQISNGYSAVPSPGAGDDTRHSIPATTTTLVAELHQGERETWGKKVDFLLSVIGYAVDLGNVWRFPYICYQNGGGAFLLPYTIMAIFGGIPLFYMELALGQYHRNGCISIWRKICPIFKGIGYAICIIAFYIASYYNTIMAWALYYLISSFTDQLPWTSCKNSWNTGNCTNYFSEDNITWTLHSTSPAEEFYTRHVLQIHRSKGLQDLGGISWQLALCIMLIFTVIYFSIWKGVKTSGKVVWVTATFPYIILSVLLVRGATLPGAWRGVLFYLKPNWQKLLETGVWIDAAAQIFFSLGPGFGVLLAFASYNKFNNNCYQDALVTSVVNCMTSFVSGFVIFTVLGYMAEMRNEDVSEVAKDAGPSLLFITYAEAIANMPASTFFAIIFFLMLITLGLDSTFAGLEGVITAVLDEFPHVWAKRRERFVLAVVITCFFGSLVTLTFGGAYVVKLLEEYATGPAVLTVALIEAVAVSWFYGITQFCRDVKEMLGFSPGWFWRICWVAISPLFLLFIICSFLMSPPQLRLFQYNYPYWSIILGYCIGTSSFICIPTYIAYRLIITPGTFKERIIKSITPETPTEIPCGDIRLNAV
Assay [4] relates to isolation-induced aggression. Conditions: mouse, with subeffective dose of L; cited from earlier work.

allosteric site of SERT, sequence (P31645 whole entry): as above

For `NC(Cc1c[nH]c2ccc(O)cc12)C(=O)O` (stereo not drawn) [Compound 5-HTP, 2-amino-3-(5-hydroxy-1H-indol-3-yl)-propanoic acid], in assay [1] (5-HTP 25 mg/kg i.v. alone (first injection), six rats, mean±SEM), the “reduction of dorsal raphe 5-HT neuron firing” value is 13.4±2.26%. In assay [1] (5-HTP 25 mg/kg injected after Compound II 0.025 mg/kg, six rats), the “further decrease of firing” value is 70.53±2.76%. `CNCc1ccccc1Sc1c[nH]c2cc(F)ccc12` [Compound II]: in assay [1] (Compound II 0.025 mg/kg as second injection after 5-HTP 25 mg/kg, six rats), the “further decrease of firing” value was 82.43±2.78%. Further, the inhibition at 0.025 mg/kg in assay [1] (Rattus norvegicus, Neuron, Compound II 0.025 mg/kg alone (first injection), six rats, mean±SEM) was 24.1 ± 4.98%. The “effect on dissociation rate of 3H-escitalopram” value on allosteric site of SERT is “significantly slowed”. Besides, the 50% inhibitory concentration (IC50) at serotonin transporter worked out at 350 pM. In addition, the “inhibitory effect at NET (in vitro reuptake inhibitory potency)” value in assay [2] is given as “exerts an inhibitory effect”.

`CN(C)CCC[C@]1(c2ccc(F)cc2)OCc2cc(C#N)ccc21` [R-citalopram]: in the assay on ultrasonic vocalization (concomitant treatment), the “ultrasonic vocalization compared to controls” value is listed as “significant increase”. As to `COc1ccccc1N1CCN(CCN(C(=O)C2CCCCC2)c2ccccn2)CC1` [WAY-100635], the “effect on spontaneous firing rate of the neuron” value in assay [1] (administered after Compound II and 5-HTP) is listed as “increases the spontaneous firing rate”. With `CNCC[C@H](Oc1cccc2ccccc12)c1cccs1` [duloxetine], in assay [3], the “stabilizing effect on radioligand:human serotonin transporter complex (dissociation from primary site)” value is reported as “little or no stabilizing effect”. For the molecule `CN(C)CCC[C@@]1(c2ccc(F)cc2)OCc2cc(C#N)ccc21` [escitalopram], in the assay with ultrasonic vocalization (co-treatment with L, 5-HTP), the “anxiolytic response to co-treatment with L, 5-HTP” value is given as “markedly enhanced”. `Fc1ccc([C@@H]2CCNC[C@H]2COc2ccc3c(c2)OCO3)cc1` [paroxetine]: the “antiaggressive effect on co-administration of a subeffective dose of L, 5-HTP” value in assay [4] is given as “greatly potentiated”.

The values above are taken from patent publication US20100286226A1, “COMBINATION THERAPY RELATED TO SEROTONIN DUAL ACTION COMPOUNDS” (H. LUNDBECK A/S, priority 2007, published 2010).
